Data: patent US10517933B2, “Method of treating androgen receptor negative prostate tumors and their metastases” (DREXEL UNIVERSITY, priority 2015, dated 2019)
Entries after “also recorded” stand apart in the source; their conditions may differ.

Key:
[1] = system: other members of the interleukin-1 family, including interleukin-1 alpha; details: cited from earlier work
[2] = system: mouse models of acute gout; details: in vivo; cited from earlier work
[3] = system: interleukin-1β; details: cited from earlier work
[4] = system: human bone mesenchymal stem cells; assay: induction of Carcinoma Associated Fibroblasts phenotype in human bone mesenchymal stem cells by IL1β or PC3-ML conditioned medium; type: cell-based; details: hMSCs exposed to IL1β or conditioned medium from PC3-ML cells
Procedure: DU-145, 22Rv1. LNCaP, and VCaP human prostate cancer cell lines were purchased from ATCC: the PC3-ML cell line was derived from the parental PC-3 cell line as described in Wang M, Stearns M E, Isolation and characterization of PC-3 human prostatic tumor sublines which preferentially metastasize to select organs in S.C.I.D. mice. Differentiation. 1991; 48:115-25. All cell lines were authenticated by short tandem repeat profiling by IDEXX Radil and/or DDC Medical. Cells were cultured in Dulbecco's Modified Eagle Medium (DU-145, VCaP, and PC3-ML) or RPMI-1460 (22Rv1 and LNCaP) containing 10% fetal bovine serum and 0.1% gentamicin. Bone marrow-derived Human Mesenchymal Stem cells (Lonza) were used between passage 5 and 8 and cultured in α-MEM supplemented with 10% FBS, 1 ng/ml bFGF (R&D), and 0.1% gentamicin. Each cell line was cultured at 37° C. and 5% CO2 and discarded 10 passages following thawing. […]
Cell lysates were obtained and Western Blotting analysis was performed as previously described. […] Chemiluminescent signals were obtained using SuperSignal West Femto substrate (Pierce) and detected with the Fluorochem 8900 imaging system and related software. […]

[5] = system: AR(−)/IL1β(+) human prostate cancer cells; assay: skeletal metastasis model: human prostate cancer cells inoculated via the left cardiac ventricle of mice; type: in vivo, mouse; details: subcutaneous anakinra from 24 hours before inoculation, then daily, FIGS. 3A-3B
Procedure: Male C.B17-SC mice (Taconic) at six to eight weeks of age were anesthetized with ketamine (80 mg/kg) and xylazine (10 mg/kg) prior being inoculated with cancer cells via the left cardiac ventricle. For anakinra treatment, animals received an initial subcutaneous dose of vehicle (PBS) or anakinra (Swedish Orphan Biovitrum) 24 hours prior to cancer cell inoculation, then additional doses at the time of xenograft and daily thereafter until sacrifice.
Prior to each weekly imaging session, animals were injected IP with 150 mg/kg D-Luciferin (PerkinElmer) and allowed to rest for ten minutes, then anesthetized using 3% isoflurane and transferred to the chamber of an IVIS Lumina XR (PerkinElmer), where they received 2% isoflurane throughout image acquisition. […]
Fluorescent images of skeletal metastases were collected as described in Liu et al., 2013, Cancer Res. 73:3297-305. In experiments assessing arrival/colonization of the bone, animals were sacrificed and femora and tibia were imaged and processed using Nuance software and a standardized spectral library and total GFP-positive DTCs counted in the knee joint of each animal. Lung tissues from the same animals were sectioned at 80 μm at intervals across the organ and images of five random fields analyzed as described. […]

Q: With “Canakinumab: a human monoclonal antibody targeted at interleukin-1 beta” as the compound, how does the “cross-reactivity with other members of the interleukin-1 family” value [1] read?
A: The value was “no cross-reactivity”.

Q: With “XOMA-052: a potent anti-IL1β humanized neutralizing antibody” as the compound, how does the “activity in mouse models of acute gout” value [2] read?
A: Its value is “active”.

Q: With `CSc1ccc(-c2nn(Cc3ccccc3)c(=O)cc2-c2ccc(Cl)cc2)cc1` [K-832, 2-benzyl-5-(4-chlorophenyl)-6-[4-(methylthio)phenyl]-2H-pyridazin-3-one] as the compound, how does the “inhibitory activity against production of interleukin-1β” value [3] read?
A: The value was “high inhibitory activity”.

Q: Which “morphological changes in alpha smooth muscle actin (CAF phenotype)” value ([4]; FIG. 4A) does the source give for “anakinra: recombinant, non-glycosylated version of human IL1 receptor antagonist prepared from cultures of genetically modified E. coli” here?
A: The value was “inhibited”.

Q: What about the “expression of the S100 A4 marker (CAF phenotype)” value ([4]; FIG. 4B) of the same compound?
A: Its value is “inhibited”.

Q: What about the “progression at the skeletal level of human prostate cancer cells (bone metastatic tumor burden)” value [5] of the same compound?
A: Its value is “significantly impaired; also recorded: much less prone to skeletal colonization”.
